Values of other authors in patent publication US20040142860A1, “Central nervous system-derived immune privilege factor and uses thereof” (Yeda Research and Development Co. Ltd., priority 1996, published 2004).

System: ganglion cell degradation in the retina
Details: single or repeated injections into the vitreous body

Threonine-Lysine-Proline [TKP]
effect on axotomy-induced ganglion cell degradation in the retina: retardation of axotomy-induced ganglion cell degradation in the retina
